Source: article PMC3607822 (The Journal of General Physiology, 2013)

Legend:
Format in all cases: biochemical
[1] = biological target: T1, CNGA3 N7R-A, 613X channels (Homo sapiens, UniProt Q16281, R101A/R103A/R72A/R75A/R81A/R82A/R86A); experiment: Inside-out patch clamp, CNGA3 N7R-A, 613X
T1 sequence (Q16281 1-612 R72A/R75A/R81A/R82A/R86A/R101A/R103A limits assumed): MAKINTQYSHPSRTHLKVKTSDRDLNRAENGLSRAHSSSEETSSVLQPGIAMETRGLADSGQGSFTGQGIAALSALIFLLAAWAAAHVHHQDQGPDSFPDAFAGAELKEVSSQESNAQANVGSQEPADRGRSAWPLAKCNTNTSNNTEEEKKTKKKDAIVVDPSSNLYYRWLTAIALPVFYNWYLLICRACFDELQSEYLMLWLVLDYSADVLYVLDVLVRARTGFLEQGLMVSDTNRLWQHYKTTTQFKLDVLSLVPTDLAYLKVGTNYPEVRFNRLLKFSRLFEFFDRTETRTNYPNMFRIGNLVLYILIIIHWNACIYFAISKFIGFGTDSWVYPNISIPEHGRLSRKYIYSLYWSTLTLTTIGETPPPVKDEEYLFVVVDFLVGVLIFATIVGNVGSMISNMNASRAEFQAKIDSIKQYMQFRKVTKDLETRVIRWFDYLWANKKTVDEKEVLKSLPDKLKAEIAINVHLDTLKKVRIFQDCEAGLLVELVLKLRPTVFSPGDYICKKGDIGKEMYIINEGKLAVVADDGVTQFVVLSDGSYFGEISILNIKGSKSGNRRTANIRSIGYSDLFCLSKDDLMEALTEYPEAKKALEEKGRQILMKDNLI

[2] = biological target: T2, CNGA3 675X homomeric channels (Homo sapiens, UniProt Q16281); experiment: Inside-out patch clamp, CNGA3 675X
T2 sequence (Q16281 1-674 limits assumed): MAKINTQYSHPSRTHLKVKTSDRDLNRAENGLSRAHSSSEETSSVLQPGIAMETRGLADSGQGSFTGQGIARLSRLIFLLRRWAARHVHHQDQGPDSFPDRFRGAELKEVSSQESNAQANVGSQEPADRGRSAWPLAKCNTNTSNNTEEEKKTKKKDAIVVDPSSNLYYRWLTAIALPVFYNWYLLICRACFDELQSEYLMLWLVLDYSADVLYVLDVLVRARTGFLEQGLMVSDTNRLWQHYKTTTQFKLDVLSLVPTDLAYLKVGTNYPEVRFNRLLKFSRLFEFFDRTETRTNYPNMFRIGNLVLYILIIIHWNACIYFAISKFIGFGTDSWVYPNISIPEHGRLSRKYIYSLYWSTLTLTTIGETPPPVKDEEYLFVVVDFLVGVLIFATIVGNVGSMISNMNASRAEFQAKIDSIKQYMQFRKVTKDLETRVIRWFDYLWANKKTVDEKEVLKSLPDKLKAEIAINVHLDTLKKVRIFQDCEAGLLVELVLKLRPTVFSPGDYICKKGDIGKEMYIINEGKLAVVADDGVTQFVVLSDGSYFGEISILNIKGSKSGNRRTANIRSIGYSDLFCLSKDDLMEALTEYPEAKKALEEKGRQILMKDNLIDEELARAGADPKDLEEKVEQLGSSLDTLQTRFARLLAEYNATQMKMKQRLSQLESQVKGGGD

[3] = biological target: T3, CNGA3 635X homomeric channels (Homo sapiens, UniProt Q16281); experiment: Inside-out patch clamp, CNGA3 635X
T3 sequence (Q16281 1-634 limits assumed): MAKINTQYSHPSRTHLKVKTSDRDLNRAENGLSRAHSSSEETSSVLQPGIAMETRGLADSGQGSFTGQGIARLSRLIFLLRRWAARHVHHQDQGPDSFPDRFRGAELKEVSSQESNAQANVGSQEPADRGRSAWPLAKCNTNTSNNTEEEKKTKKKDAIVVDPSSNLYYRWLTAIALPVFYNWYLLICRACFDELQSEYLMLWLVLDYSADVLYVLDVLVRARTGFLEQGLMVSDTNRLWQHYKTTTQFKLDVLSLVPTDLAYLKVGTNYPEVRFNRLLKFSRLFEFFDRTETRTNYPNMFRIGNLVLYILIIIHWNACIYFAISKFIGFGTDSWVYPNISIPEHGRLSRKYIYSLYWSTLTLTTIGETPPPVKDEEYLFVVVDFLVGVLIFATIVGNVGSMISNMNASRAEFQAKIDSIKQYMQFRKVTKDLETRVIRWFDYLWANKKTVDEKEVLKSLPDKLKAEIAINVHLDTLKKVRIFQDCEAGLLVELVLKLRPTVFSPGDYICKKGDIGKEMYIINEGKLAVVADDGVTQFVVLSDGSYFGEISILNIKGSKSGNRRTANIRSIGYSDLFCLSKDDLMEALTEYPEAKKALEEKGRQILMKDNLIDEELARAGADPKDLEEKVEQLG

[4] = biological target: CNGA3 D609M channels (Homo sapiens, UniProt Q16281, D609M); experiment: Inside-out patch clamp, CNGA3 D609M
CNGA3 D609M channels, sequence (Q16281 whole entry D609M): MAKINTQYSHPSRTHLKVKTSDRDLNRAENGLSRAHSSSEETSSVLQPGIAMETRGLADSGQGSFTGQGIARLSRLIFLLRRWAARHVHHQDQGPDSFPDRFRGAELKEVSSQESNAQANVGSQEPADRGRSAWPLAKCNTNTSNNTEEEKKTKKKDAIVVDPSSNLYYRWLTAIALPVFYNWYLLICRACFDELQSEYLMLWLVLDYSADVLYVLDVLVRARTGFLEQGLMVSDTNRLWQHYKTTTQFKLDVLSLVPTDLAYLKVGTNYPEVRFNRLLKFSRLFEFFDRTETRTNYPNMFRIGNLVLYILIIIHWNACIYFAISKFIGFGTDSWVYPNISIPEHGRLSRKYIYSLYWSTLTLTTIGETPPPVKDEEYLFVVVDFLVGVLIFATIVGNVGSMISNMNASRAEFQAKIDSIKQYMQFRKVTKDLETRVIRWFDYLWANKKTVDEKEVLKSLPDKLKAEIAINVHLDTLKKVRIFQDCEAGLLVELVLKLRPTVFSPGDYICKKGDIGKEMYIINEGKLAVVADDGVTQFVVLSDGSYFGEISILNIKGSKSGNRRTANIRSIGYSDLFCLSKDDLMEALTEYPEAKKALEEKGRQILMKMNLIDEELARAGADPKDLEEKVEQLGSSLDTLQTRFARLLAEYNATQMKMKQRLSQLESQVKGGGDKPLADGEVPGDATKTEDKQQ

[5] = biological target: T4, human CNGA3 wild-type homomeric channels (Homo sapiens, UniProt Q16281); experiment: Inside-out patch clamp, homomeric CNGA3 wild type expressed in X. laevis oocytes
T4 sequence (Q16281 1-694): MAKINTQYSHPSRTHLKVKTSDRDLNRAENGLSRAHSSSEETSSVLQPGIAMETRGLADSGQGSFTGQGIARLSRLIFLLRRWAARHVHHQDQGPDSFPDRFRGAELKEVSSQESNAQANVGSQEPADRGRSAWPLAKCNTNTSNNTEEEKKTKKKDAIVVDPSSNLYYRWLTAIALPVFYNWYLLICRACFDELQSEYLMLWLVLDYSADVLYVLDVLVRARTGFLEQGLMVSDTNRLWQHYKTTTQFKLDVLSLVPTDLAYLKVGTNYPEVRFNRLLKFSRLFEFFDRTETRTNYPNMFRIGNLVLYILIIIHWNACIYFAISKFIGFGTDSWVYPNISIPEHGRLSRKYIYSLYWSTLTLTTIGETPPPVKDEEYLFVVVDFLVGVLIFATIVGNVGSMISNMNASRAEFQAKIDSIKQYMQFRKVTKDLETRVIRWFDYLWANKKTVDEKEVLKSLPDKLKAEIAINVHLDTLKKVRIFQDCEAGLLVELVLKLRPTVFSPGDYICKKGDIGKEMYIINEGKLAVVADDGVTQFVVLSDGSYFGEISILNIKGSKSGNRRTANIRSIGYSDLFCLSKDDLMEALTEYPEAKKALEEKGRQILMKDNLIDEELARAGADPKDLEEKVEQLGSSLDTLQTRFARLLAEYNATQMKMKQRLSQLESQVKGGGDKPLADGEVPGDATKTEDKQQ

[6] = read-out: K1/2 cGMP, +80 mV, no PIPn

## Nc1nc2c(ncn2[C@@H]2O[C@@H]3COP(=O)(O)O[C@H]3[C@H]2O)c(=O)[nH]1 [cGMP, cyclic guanosine monophosphate]
[1]; cGMP activation
  Hill coefficient: 1.82 ± 0.04 (6)
[1]; [6]
  EC50: 16.4 ± 1.65 µM
[2]; cGMP activation
  Hill coefficient: 1.88 ± 0.05 (4)
[2]; [6]
  EC50: 9.22 ± 0.55 µM
[3]; cGMP activation
  Hill coefficient: 2.00 ± 0.00 (5)
[3]; [6]
  EC50: 8.2 ± 0.57 µM
[3]; saturating cGMP
  Po max cGMP: 0.92 ± 0.01 (4)
[4]; estimated using tetracaine block
  Po max cGMP: 0.30 ± 0.02
[5]; cGMP activation
  Hill coefficient: 1.91 ± 0.04 (18)
[5]; estimated from state-dependent block by tetracaine
  Po max cGMP: ~0.99
[5]; [6]
  EC50: 9.29 ± 0.43 µM

## phosphatidylinositol (3,4,5)-trisphosphate [PIP3]
[1]; 10 µM PIP3
  fold change in K1/2 cGMP after PIP3: 1.02 ± 0.05 fold
[2]; 1 µM PIP3
  PIP3-induced change in cAMP efficacy: preserved the PIP3-induced change in cAMP efficacy
[3]; 1 µM PIP3
  PIP3-induced change in cAMP efficacy: failed to show a PIP3-dependent increase in cAMP efficacy
[3]; 10 µM PIP3
  fold change in cAMP efficacy after PIP3: 1.06 ± 0.03 fold
[4]; 1 µM PIP3
  effect on relative cGMP efficacy: elevated relative cGMP efficacy
[5]; 1 µM PIP3 after prior application of cyto D
  fold increase Imax cAMP/cGMP: 2.54 ± 0.27 fold
[5]; 10 µM phosphoinositide applied to inside-out patch
  fold increase in Imax cAMP/cGMP: 2.63 ± 0.13 fold
[5]; 1 mM cGMP
  effect on maximal cGMP current: not significantly altered
[5]; apparent cAMP affinity after PIP3 or PIP2 application
  K1/2 cAMP after phosphoinositide: 1.16 ± 0.06 mM
[5]; fluctuation analysis
  Po max cAMP after PIP3: 0.37 ± 0.07
  Po max cGMP after PIP3: 0.93 ± 0.01
